Measurements taken from paper doi:10.1101/2021.06.08.447613v1 (biorxiv, 2021).

Target: M^Pro (SARS-CoV-2 main protease) (Severe acute respiratory syndrome coronavirus 2, UniProt P0DTD1)
Assay: fluorogenic peptide substrate cleavage, […] min preincubation
Type: biochemical
Settings: pH 7.6, 37 °C, 50 nM enzyme, 10 μM substrate

## CCN(CC)CCCC(C)Nc1ccnc2cc(Cl)ccc12 (stereo not shown) [chloroquine]
  % activity retained at 16 μM: 84%
